Source: patent publication US9044481B2 (GlaxoSmithKline Biologicals S.A., priority 2009, dated 2015)

Tested on: C57BL/6 female mice
Assay: Innate cytokines and chemokines in sera of vaccinated mice (SIV-p27 model, AS01B + TLR7-L liposomes)
Type: in vivo
Details: for IL-6 in sera / TNF-α in sera / chemokine MCP-1 in sera: after injection, DPPC liposomes with SIV-p27 and AS01B, vs AS01B reference group
Excerpt: We evaluated the capacity of TLR7 ligands to promote various aspects of the immune response in mice. Innate immunity was specifically investigated to conclude whether lipidated TLR7 compounds were able to induce innate chemokines and pro-inflammatory cytokines. This innate immune response provides the body with initial, non-specific protection against pathogens. Among these innate chemokines and cytokines, type I IFN is thought to be required for the programming of naïve CD8 T-cell with respect to survival, differentiation and memory development.
10.4 ml of lipidated-TLR7-L A1 at 10 mg/ml in chloroform were transferred into a round-bottomed glass vial. To this vial were added 18.4 ml of DPPC solubilised in chloroform at 100 mg/ml. 21.9 ml of lipidated-TLR7-L compound A3 solubilized at 5 mg/ml in chloroform were transferred into a round-bottomed glass vial. To this vial were added 20 ml of DPPC solubilised in chloroform at 100 mg/ml. Chloroform was evaporated in a Büchi Rotavapor under slow decrease of pressure. The obtained film was further dessicated at least overnight in a dessicator under vacuum. After that, the lipid film was slowly hydrated on an orbital shaker (maximal speed: 250 rpm) using 50 mM PO4-100 mM NaCl, pH 7 buffer pre-heated at 60° C.
After completion of resuspension, a swelling step was carried out in order to further increase the phospholipid hydration, it consists of incubating the preparation at room temperature. The suspension was then pre-homogenized using a rotor-stator homogenizer (X620 CAT) for 12 min at 8000 rpm.
Microfluidization was then carried out using a microfluidizer (Model 110S-Serial 90181-Microfluidics Corporation) at 6 bars while keeping the microfluidization chamber at about 40° C. Sterile filtration was achieved on a PES filter (GD/X 0.2 μm, 25 mm, Whatman).
Lipidated molecules A3 and A1 were evaluated in vivo. The SIV-p27-containing formulations summarized in Table 1 were used to vaccinate 6-8 week old C57BL/6 female mice (10/group). The mice received two intramuscular injections of 50 μl, 14 days apart and were bled at different time points after prime and boost as illustrated in FIG. 1.
The innate and adaptive immune responses induced by the formulations containing the TLR7 agonists and the proprietary AS01B adjuvant (QS21+MPL) were also compared to the one induced by the corresponding AS01B-containing formulations and empty DPPC liposomes.

Structure (SMILES) | IL-6 in sera | TNF-α in sera | chemokine MCP-1 in sera | relative potency in enhancing inflammatory cytokines TNF-α and IL-6 (comparison of A1 and A3 in DPPC liposome formulations)
CCCCCCCCCCCCCCCC(=O)OC[C@H](COP(=O)(O)N1CCN(CCn2c(O)nc3c(N)nc(OCCCC)nc32)CC1)OC(=O)CCCCCCCCCCCCCCC [Compound A3, 6-Amino-2-butoxy-9-[1-(1,2-dipalmitoyl-sn-glycero-3-phosphoramido)-4-piperazinylethyl]-8-hydroxypurine] | enhanced | enhanced | enhanced | 
CCCCCCCCCCCCCCCC(=O)OC[C@H](COP(=O)(O)OCCN1CCC(Cn2c(O)nc3c(N)nc(OCCCC)nc32)CC1)OC(=O)CCCCCCCCCCCCCCC [Compound A1] | enhanced | enhanced | enhanced | more potent than A3
